The record followed here is ChEMBL document CHEMBL1137385, “Macrocyclic inhibitors of beta-secretase: functional activity in an animal model” (J Med Chem, 2006).

For data set [1], the target named is T1, Beta-secretase 1 (Homo sapiens, UniProt P56817). Briefly: Inhibition of BACE1 at pH 4.5.
Data set [2] deals with T1, Beta-secretase 1. Put plainly: Inhibition of BACE1 in HEK293T cells. In kind it is cell-based, HEK-293T.
The nature of data set [3]: Apparent permeability in porcine LLC-PK1 cells. It counts as ADME, cell-based, Sus scrofa. The note with it: pig.
For data set [4], the system named is Mus musculus. Put plainly: Ratio of drug level in brain against plasma in C57/BL6 APP-YAC mouse model at 100 mg/kg, iv. In kind it is ADME, organism-based, C57Bl/6. Also noted: dose 100 mg/kg, route intravenous.
For data set [5], the system named is Mus musculus. Briefly: Drug level in brain of C57/BL6 APP-YAC mouse model at 100 mg/kg, iv. It counts as ADME, organism-based, C57Bl/6. Also on record: dose 100 mg/kg, route intravenous. The note with it: in vivo, read-out: Drug uptake.

Some results are limits rather than exact numbers.

Broadly, the IC50 is the point on the concentration scale where inhibition reaches its midpoint. Read a high IC50 as weaker potency in that assay. For orientation: Papp means the rate of passage across a membrane or cell layer, normalised by area and donor concentration.

T1 sequence (P56817 whole entry): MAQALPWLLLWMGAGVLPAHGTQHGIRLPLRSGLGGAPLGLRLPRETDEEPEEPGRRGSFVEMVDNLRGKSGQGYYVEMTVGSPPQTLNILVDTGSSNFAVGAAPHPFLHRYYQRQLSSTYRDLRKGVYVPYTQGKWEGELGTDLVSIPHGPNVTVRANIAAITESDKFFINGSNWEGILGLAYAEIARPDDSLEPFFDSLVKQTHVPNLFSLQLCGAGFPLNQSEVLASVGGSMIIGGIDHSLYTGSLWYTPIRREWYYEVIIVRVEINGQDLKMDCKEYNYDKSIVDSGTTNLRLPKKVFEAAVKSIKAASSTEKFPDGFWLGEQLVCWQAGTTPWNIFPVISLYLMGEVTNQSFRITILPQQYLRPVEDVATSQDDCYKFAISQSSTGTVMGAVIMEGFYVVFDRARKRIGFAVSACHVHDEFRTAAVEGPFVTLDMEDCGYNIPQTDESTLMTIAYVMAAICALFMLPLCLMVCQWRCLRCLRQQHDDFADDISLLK

The molecule `CC[C@H](NCC1Cc2cccc(c2)CCCCCc2cc(cc(N(C)S(C)(=O)=O)c2)C(=O)N1)C(=O)NCC(C)C` (stereo partly drawn) registered an IC50 in data set [1] of 1100 nM.
As to `CC[C@H](NCC1Cc2cccc(c2)CCCCc2cc(cc(N(C)S(C)(=O)=O)c2)C(=O)N1)C(=O)NCC(C)C` (stereo partly drawn), the IC50 in data set [2] is 1140 nM; in data set [1], 90 nM. Moreover, the Papp in data set [3] was 19 ×10⁻⁶ cm/s.
In data set [1], `CNC(=O)c1cc(C(=O)NC(CO)Cc2cccc(OC)c2)cc(N(C)S(C)(=O)=O)c1` (stereo not drawn) returned an IC50 of over 100000 nM.
Consider `CC[C@H](NCC1Cc2cccc(c2)OCCNC(=O)c2cc(cc(N(C)S(C)(=O)=O)c2)C(=O)N1)C(=O)NCC(C)C` (stereo partly drawn), for which the figures for the IC50 in data set [2] and in data set [1] were 5400 nM and 32 nM, respectively. In addition, in data set [3], the apparent permeability (Papp) was determined as 0.5 ×10⁻⁶ cm/s.
Regarding `CCCC[C@H](NC[C@@H]1Cc2cccc(c2)CCCCc2cc(cc(N(CCC)S(C)(=O)=O)c2)C(=O)N1)C(=O)NCC(C)C`, the figures for the IC50 in data set [2] and in data set [1] were 76 nM and 4 nM, respectively. Moreover, in data set [4], the BPR is listed as 20%. For the same molecule, the concentration in data set [5] came to 1100 nM. Further, the Papp in data set [3] turned out to be 13 ×10⁻⁶ cm/s.
